In one assay the test system is ACAT. Briefly: ACAT activity in liver microsomes of fed rats. The assay is classed as in vivo, rat. The procedure: To determine the effect of feeding NG5006 to rats on the activities of ACAT and HMG-CoA reductase, microsomes were separated from liver tissues to be used as an enzyme source.
1 g each of the livers taken from each group of rats of Example 12 was homogenized in 5 ml of homogenization medium(0. 1 M KH2PO4, pH 7.4, 0.1 mM EDTA and 10 mM β-mercaptoethanol). The homogenate was centrifuged at 3,000×g for 10 min. at 4° C. and the supernatant thus obtained was centrifuged at 15,000×g for 15 min. at 4° C. to obtain a supernatant. The supernatant was put into an ultracentrifuge tube(Beckman) and centrifuged at 100,000×g for 1 hour at 4° C. to obtain microsomal pellets, which were then suspended in 3 ml of the homogenization medium and centrifuged at 100,000×g for 1 hour at 4° C. The pellets thus obtained were suspended in 1 ml of the homogenization medium. The protein concentration of the resulting suspension was determined by Lowry's method and then adjusted to 4 to 8 mg/ml. The resulting suspension was stored in a deep freezer(Biofreezer, Forma Scientific Inc.).
6.67 μl of 1 mg/ml cholesterol solution in acetone was mixed with 6 μl of 10% Triton WR-1339(Sigma Co.) in acetone and then, acetone was removed from the mixture by evaporation under a nitrogen flow. Distilled water was added to the resulting mixture to adjust the concentration of cholesterol to […].
Added to 10 μl of the resulting aqueous cholesterol solution were 10 μl of 1 M KH2PO4(pH 7.4), 5 μl of 0.6 mM bovine serum albumin(BSA), 10 μl of microsome solution obtained in (Step 1) and 55 μl of distilled water(total 90 μl). The mixture was pre-incubated in a water bath at 37° C. for 30 min. […]
200 μl of the resulting supernatant was put in a scintillation bottle and 4 ml of scintillation fluid(Lumac Co.) was added thereto. The mixture was assayed for radioactivity with 1450 Microbeta liquid scintillation counter(Wallac Co., Finland). ACAT activity was calculated as picomoles of cholesteryl oleate synthesized per min. per mg protein(pmoles/min/mg protein).

Assay [1] has as its system New Zealand White rabbits. Briefly: Abnormal fat-containing liver cells (fatty liver) in cholesterol-fed rabbits. It is filed as in vivo, rabbit. The procedure: 22 three-month-old New Zealand White rabbits(Yeonam Horticulture and Animal Husbandry College, Korea) each weighing about 2.0 to 2.3 kg were bred under a condition of temperature 20±2° C., relative humidity 55±10%, and photoperiod 12L/12D. The rabbits were divided two groups of 6 rabbits and a group of 10 rabbits, and the rats of three groups were fed with three different diets, i.e., RC4 diet(Oriental Yeast Co., Japan) containing 1% cholesterol(Control group); 1% cholesterol plus 1 mg/kg Lovastatin® (Merck, U.S.A.)(Comparative group); and 1% cholesterol plus 0.1% NG5006, respectively. RC4 diet comprises 7.6% moisture, 22.8% crude protein, 2.8% crude fat, 8.8% crude ash, 14.4% crude cellulose and 43.6% soluble nitrogen-free substances. The rabbits were bred for 8 weeks while being allowed free access to the diets and water.
In order to evaluate the effects of feeding a high cholesterol diet with NG5006 on liver tissues, the liver specimens taken from the sacrificed rabbit in Step 2 of Example 14 were treated in accordance with the procedure disclosed in Fogt F. and Nanji A., Toxicology and Applied Pharmacology, 136, 87-93, 1996; and Keegan A., et al., Journal of Hepatology, 23, 591-600, 1995, and observed under a microscope to be classified into four grades, i.e., 1+(0-25%), 2+(26-50%), 3+(51-75), 4+(76-100%) based on the proportion of abnormal fat-containing cells around the central vein in the liver acinus. The results were tested by student t-test by using Microsoft excel(version 7.0) program.

Another assay concerns Sprague-Dawley rats. Description: Plasma total cholesterol, HDL-cholesterol and triglyceride levels in rats fed high-cholesterol diet. It is filed as in vivo, rat. From the text:
(Step 1) Administration of NG5006 to rats
30 four-week-old white Sprague-Dawley rats (Korea Institute of Science and Technology, Korea), each weighing about 90 to 120 g, were evenly divided into three dietary groups by a randomized block design. The rats of the three groups were fed with three different high-cholesterol diets, i.e., AIN-76 laboratory animal diet(ICN Biochemicals, Cleveland, Ohio, U.S.A.) containing 1% cholesterol(Control group), 1% cholesterol plus 0.02% naringenin and 1% cholesterol plus 0.036% NG5006, respectively.
The rats were allowed to feed freely on the specified diet together with water for six weeks, the ingestion amount was recorded daily and the rats were weighed every 7 days, and then the record was analyzed. […] (Step 2) Determination of total cholesterol, HDL-cholesterol and triglyceride contents in blood
The effects of administering naringenin or NG5006 to rats on the plasma cholesterol and triglyceride contents were determined as follows.
Blood samples were taken from the rats of the three dietary groups and total cholesterol level was determined by using Sigma Diagnostic Kit Cat. No. C0534(Sigma Chemical Co., U.S.A.). HDL fractions were separated therefrom by using HDL-cholesterol reagent(Sigma Chemical Co., Cat. No. 352-1) and HDL-cholesterol level was determined by using Sigma Diagnostic Kit Cat. No. C9908(Sigma Chemical Co., U.S.A.). Triglyceride level was determined by using Sigma Diagnostic Kit Cat. No. 336-10(Sigma Chemical Co., U.S.A.).

[2] abbreviates: plasma, rats on 1% cholesterol diet plus 0.02% naringenin or 0.036% NG5006, six weeks.
The mark [3] stands for this setting: rats, 1% cholesterol diet, six weeks.

On to `CCCCCCCCCCCCCCCCOc1cc(O)c2c(c1)OC(c1ccc(O)cc1)CC2=O` (stereo not shown) [NG5006, Naringenin 7-O-cetyl Ether], for which, in the assay on ACAT (NG5006-fed rat group), the “ACAT activity lower than that of the control group” value was determined as 14%. Also, the ACAT activity in the assay with ACAT (liver microsomes of rats fed 1% cholesterol plus 0.02% naringenin or 0.036% NG5006, six weeks) is 149.7 ± 5.1 pmole/min/mg protein. For the same compound, the “microscopic features of the livers (FIGS. 2B, 2C)” value in assay [1] (1% cholesterol plus 1 mg/kg Lovastatin or 0.1% NG5006) is given as “almost all liver cells are of a normal shape”. Further, the “formation of fatty liver compared to the Control and the Lovastatin group, in words” value in assay [1] (1% cholesterol plus 0.1% NG5006) is listed as “significantly inhibits the formation of fatty liver”. For the same compound, the “Proportion of abnormal fat-containing liver cells (grade)” value in assay [1] (grades 1+(0-25%), 2+(26-50%), 3+(51-75), 4+(76-100%), 1% cholesterol plus 1 mg/kg Lovastatin or 0.1% NG5006, 8 weeks) worked out at 2.2 ± 0.9. In the assay on Sprague-Dawley rats (setting [2]), the “HDL-C (HDL-cholesterol)” value is 36.7 ± 1.3 mg/dL, the HDL-C/Total-C is 20.4 ± 0.7%, the “TG (triglyceride)” value was found to be 118.4 ± 3.4 mg/dL and the “Total-C (total cholesterol)” value was found to be 183.5 ± 6.4 mg/dL. Further, the “AI: Atherosclerosis Index (AI = (Total-C − HDL-C)/HDL-C)” value in the assay on Sprague-Dawley rats (rats on 1% cholesterol diet plus 0.02% naringenin or 0.036% NG5006, six weeks) was 4.0 ± 0.2. Besides, in the assay with Sprague-Dawley rats (setting [3]), the “lowering blood lipid level, comparison in words” value is “superior to naringenin in lowering blood lipid level”; the “total plasma cholesterol level lower than in the Control group” value is given as 19%; the “triglyceride level lower than in the control group” value is listed as 33%.

The values above are taken from patent US6455577B2, “Flavanone derivatives and composition for preventing or treating blood lipid level-related diseases comprising same” (Korea Research Institute of Bioscience and Biotechnology, priority 2000, dated 2002).
